Measurements reported in patent publication US20080004253A1, “Thiazolopyrimidine modulators of TRPV1” (priority 2006, published 2008).
pIC50: −log10 of the molar value.

Key:
[1] = target: T1, human TRPV1 (Homo sapiens, UniProt Q8NER1); test: Functional assay: block of capsaicin-induced Ca2+ influx, human assay (hTRPV1/HEK293, FLIPR); format: cell-based; settings: hTRPV1/HEK293 cells, 150 nM capsaicin challenge, Fluo-3 fluorescence; mean; > value = solubility limit in assay medium
T1 construct: expressed in transfected cells; host or cells: HEK293 (hTRPV1/HEK293), zeocin selection
T1 sequence (Q8NER1 whole entry): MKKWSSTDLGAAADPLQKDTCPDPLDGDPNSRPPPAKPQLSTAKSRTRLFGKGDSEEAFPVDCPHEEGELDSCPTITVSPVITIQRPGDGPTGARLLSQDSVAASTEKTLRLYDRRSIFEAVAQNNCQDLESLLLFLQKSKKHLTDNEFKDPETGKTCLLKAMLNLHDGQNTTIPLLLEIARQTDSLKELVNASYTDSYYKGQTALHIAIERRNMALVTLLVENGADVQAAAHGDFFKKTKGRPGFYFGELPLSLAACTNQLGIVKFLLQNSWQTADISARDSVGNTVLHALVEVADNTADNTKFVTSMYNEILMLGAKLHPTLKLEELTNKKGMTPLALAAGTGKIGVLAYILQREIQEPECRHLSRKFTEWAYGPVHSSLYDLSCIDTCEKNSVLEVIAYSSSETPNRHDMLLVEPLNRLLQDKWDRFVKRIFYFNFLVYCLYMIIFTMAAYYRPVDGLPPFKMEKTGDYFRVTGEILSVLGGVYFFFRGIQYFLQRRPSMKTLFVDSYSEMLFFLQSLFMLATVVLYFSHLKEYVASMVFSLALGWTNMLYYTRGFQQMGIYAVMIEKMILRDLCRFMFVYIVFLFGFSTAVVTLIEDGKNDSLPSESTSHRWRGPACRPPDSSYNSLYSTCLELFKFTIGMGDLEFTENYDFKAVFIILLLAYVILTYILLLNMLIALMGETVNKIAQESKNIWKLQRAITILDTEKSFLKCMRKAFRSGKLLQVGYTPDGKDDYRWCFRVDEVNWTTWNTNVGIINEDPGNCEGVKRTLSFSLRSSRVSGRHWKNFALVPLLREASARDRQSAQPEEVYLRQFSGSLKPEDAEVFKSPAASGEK
Experimental: (§1) Functional assay: block of capsaicin-induced Ca^2+ influx
(§2) HEK293 cells were transfected with human TRPV1 cloned in pcDNA3.1zeo(+) using the Effectene non-liposomal lipid based transfection kit (Qiagen) (hTRPV1/HEK293). hTRPV1/HEK293 cells were routinely grown as monolayers under selection in zeocin (200 μg/mL; Invitrogen) in Dulbecco's Modified Eagle Medium (DMEM, Gibco BRL) supplemented with 10% fetal bovine serum, and penicillin/streptomycin (50 units/mL) in 5% CO2 at 37° C. Cells were passaged frequently, every 3-5 days, to avoid overgrowth, depletion of essential medium components, or acidic medium exposure. Cells were passaged using a brief wash in 0.05% trypsin with 1 mM EDTA, followed by dissociation in divalent-free phosphate-buffered saline (Hyclone #SH30028.02). […] The assay buffer was composed of 130 mM NaCl, 2 mM KCl, 2 mM MgCl2, 10 mM HEPES, 5 mM glucose, and either 2 mM or 20 μM CaCl2. On the day of the experiment, the culture medium was replaced with 2 mM calcium assay buffer using an automated plate washer (ELx405; Biotek, VT). […] After loading the cells, the dye solution was replaced with 50 μL/well of 20 μM calcium assay buffer using the ELx405 plate washer. Test compounds (50 μL/well) were added to the plate and incubated for 30 min. […] The IC50 values were determined. […] The contents of the wells were mixed 3 times (40 μL mix volume) immediately after the additions were made. Concentration-dependence of block was determined by exposing each well of cells in duplicate rows of a 96-well plate to a serial dilution of test compound. The concentration series usually started at 10 μM with a three-fold serial decrement in concentration. The magnitude of the capsaicin response was determined by measuring the change in fluo3 fluorescence before and 100 seconds after the addition of the agonist. Data were analyzed using a non-linear regression program (Origin; OriginLab, MA).
(§3) IC50 values shown are the average (mean) of the results obtained. […] Compounds were tested in either the free base or trifluoroacetic acid salt form.

[2] = target: T2, rat TRPV1 (Rattus norvegicus, UniProt O35433); test: Functional assay: block of capsaicin-induced Ca2+ influx, rat assay (rTRPV1/HEK293, FLIPR); format: cell-based; settings: rTRPV1/HEK293 cells, capsaicin challenge, Fluo-3 fluorescence; mean; > value = solubility limit in assay medium
T2 construct: expressed in transfected cells; host or cells: HEK293 (rTRPV1/HEK293), geneticin selection
T2 sequence (O35433 whole entry): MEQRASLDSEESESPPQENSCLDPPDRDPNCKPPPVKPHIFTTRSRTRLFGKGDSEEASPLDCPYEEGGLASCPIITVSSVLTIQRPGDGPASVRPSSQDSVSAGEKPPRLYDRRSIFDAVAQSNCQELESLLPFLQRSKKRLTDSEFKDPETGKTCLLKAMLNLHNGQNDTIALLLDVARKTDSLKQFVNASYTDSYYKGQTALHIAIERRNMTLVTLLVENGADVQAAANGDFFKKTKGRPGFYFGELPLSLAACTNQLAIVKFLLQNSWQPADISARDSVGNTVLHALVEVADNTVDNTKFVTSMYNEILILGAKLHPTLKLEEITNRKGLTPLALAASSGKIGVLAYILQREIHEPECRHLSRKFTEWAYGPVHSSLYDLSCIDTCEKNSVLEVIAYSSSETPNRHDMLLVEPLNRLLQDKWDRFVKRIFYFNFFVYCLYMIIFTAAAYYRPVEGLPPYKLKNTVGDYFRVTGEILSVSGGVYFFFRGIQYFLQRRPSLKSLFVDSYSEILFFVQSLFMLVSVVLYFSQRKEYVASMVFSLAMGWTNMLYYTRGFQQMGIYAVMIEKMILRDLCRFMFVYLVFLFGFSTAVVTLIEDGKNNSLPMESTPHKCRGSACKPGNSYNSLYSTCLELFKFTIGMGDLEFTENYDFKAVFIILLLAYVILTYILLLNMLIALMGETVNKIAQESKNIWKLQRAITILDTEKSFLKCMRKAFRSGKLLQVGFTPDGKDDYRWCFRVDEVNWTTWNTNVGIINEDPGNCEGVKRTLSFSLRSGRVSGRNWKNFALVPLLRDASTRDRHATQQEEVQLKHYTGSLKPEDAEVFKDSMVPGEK
Experimental: as §1, §2
This assay was performed similarly to the human assay described above, but using HEK293 cells transfected with rat TRPV1 (rTRPV1/HEK293).
as §3

pIC50 [1]	pIC50 [2]	SMILES
< 4.70	5.13	Cc1nc(Nc2ccc(NS(C)(=O)=O)cc2)c2nc(Nc3c(C)cccc3C)sc2n1 [Example 174, N-{4-[2-(2,6-Dimethyl-phenylamino)-5-methyl-thiazolo[5,4-d]pyrimidin-7-ylamino]-phenyl}-methanesulfonamide]
6.38	6.50	CSc1ccccc1Nc1nc2c(Nc3ccc(C(F)(F)F)cc3)nc(C)nc2s1 [Example 195, 5-Methyl-N^2-(2-methylsulfanyl-phenyl)-N^7-(4-trifluoromethyl-phenyl)-thiazolo[5,4-d]pyrimidine-2,7-diamine]
6.19	6.18	CC(CO)Nc1nc(Nc2ccc(C(F)(F)F)cc2)c2nc(Nc3c(Cl)cccc3Cl)sc2n1 (racemic) [Example 186, (racemic)-2-[2-(2,6-Dichloro-phenylamino)-7-(4-trifluoromethyl-phenylamino)-thiazolo[5,4-d]pyrimidin-5-ylamino]-propan-1-ol]
7.00	7.14	COC(=O)C(C)(C)c1ccc(Nc2ncnc3sc(Nc4c(C)noc4C)nc23)cc1 [Example 222, Methyl 2-[4-({2-[(3,5-dimethylisoxazol-4-yl)amino][1,3]thiazolo[5,4-d]pyrimidin-7-yl}amino)phenyl]-2-methylpropanoate]
6.67	6.65	Clc1cccc(Cl)c1Nc1nc2c(Nc3ccccc3)ncnc2s1 [Example 204, N^2-(2,6-Dichloro-phenyl)-N^7-phenyl-thiazolo[5,4-d]pyrimidine-2,7-diamine]
< 5.18	< 5.18	Cc1cccc(C)c1Nc1nc2c(Nc3ccc(C(F)(F)F)cc3Cl)ncnc2s1 [Example 167, N^7-(2-Chloro-4-trifluoromethyl-phenyl)-N^2-(2,6-dimethyl-phenyl)-thiazolo[5,4-d]pyrimidine-2,7-diamine]
5.37	5.51	FC(F)(F)c1ccc(Nc2nc(N3CCNCC3)nc3sc(Nc4c(Cl)cccc4Cl)nc23)cc1Cl [Example 162, N^7-(3-Chloro-4-trifluoromethyl-phenyl)-N^2-(2,6-dichloro-phenyl)-5-piperazin-1-yl-thiazolo[5,4-d]pyrimidine-2,7-diamine]
5.15	5.11	FC(F)(F)c1ccc(Nc2ncnc3sc(NC4CCCCC4)nc23)cn1 [Example 233, N^2-Cyclohexyl-N^7-[6-(trifluoromethyl)pyridin-3-yl][1,3]thiazolo[5,4-d]pyrimidine-2,7-diamine]
6.14	6.45	Cc1cccc(C)c1Nc1nc2c(Nc3ccccc3)ncnc2s1 [Example 147, N^2-(2,6-Dimethyl-phenyl)-N^7-phenyl-thiazolo[5,4-d]pyrimidine-2,7-diamine]
7.37	7.42	FC(F)(F)c1ccc(Nc2ncnc3sc(Nc4ccccc4Cl)nc23)cn1 [Example 220, N^2-(2-Chlorophenyl)-N^7-[6-(trifluoromethyl)pyridin-3-yl][1,3]thiazolo[5,4-d]pyrimidine-2,7-diamine]
< 4.70	< 4.70	Cc1cccc(C)c1Nc1nc2c(Nc3ccc(C(=O)O)cc3)ncnc2s1 [Example 172, 4-[2-(2,6-Dimethyl-phenylamino)-thiazolo[5,4-d]pyrimidin-7-ylamino]-benzoic acid]
5.47	5.43	FC(F)(F)c1ccc(Nc2ncnc3sc(Nc4c(Cl)cc(CN5CCC5)cc4Cl)nc23)cc1 [Example 239, N^2-(4-Azetidin-1-ylmethyl-2,6-dichloro-phenyl)-N^7-(4-trifluoromethy-phenyl)-thiazolo[5,4-d]pyrimidine-2,7-diamine]

Second part, the molecule before the results:

SMILES	pIC50 [1]	pIC50 [2]
Cc1nc(Nc2ccc(SC(C)C)cc2)c2nc(Nc3c(Cl)cccc3Cl)sc2n1 [Example 103, N^2-(2,6-Dichloro-phenyl)-N^7-(4-isopropylsulfanyl-phenyl)-5-methyl-thiazolo[5,4-d]pyrimidine-2,7-diamine]	7.70	7.48
FC(F)(F)c1ccc(Nc2nc(NCC3CC3)nc3sc(Nc4c(Cl)cccc4Cl)nc23)cc1 [Example 62, N^5-Cyclopropylmethyl-N^2-(2,6-dichloro-phenyl)-N^7-(4-trifluoromethyl-phenyl)-thiazolo[5,4-d]pyrimidine-2,5,7-triamine]	7.70	8.40
Cc1cccc(C)c1Nc1nc2c(Nc3ccc(S(=O)(=O)N4CCOCC4)cc3)ncnc2s1 [Example 91, N^2-(2,6-Dimethyl-phenyl)-N^7-[4-(morpholine-4-sulfonyl)-phenyl]-thiazolo[5,4-d]pyrimidine-2,7-diamine]	8.15	9.00
Cc1noc(C)c1Nc1nc2c(Nc3ccc(C(F)(F)F)cc3)ncnc2s1 [Example 25, N^2-(3,5-Dimethyl-isoxazol-4-yl)-N^7-(4-trifluoromethyl-phenyl)-thiazolo[5,4-d]pyrimidine-2,7-diamine]	6.38	7.17
O=S(=O)(c1ccc(Nc2ncnc3sc(Nc4c(Cl)cccc4Cl)nc23)cc1)N1CCCC1 [Example 76, N^2-(2,6-Dichloro-phenyl)-N^7-[4-(pyrrolidine-1-sulfonyl)-phenyl]-thiazolo[5,4-d]pyrimidine-2,7-diamine]	9.00	9.00
Cc1nc(Nc2ccc(C)c(F)c2)c2nc(Nc3c(C)cccc3C)sc2n1 [Example 133, N^2-(2,6-Dimethyl-phenyl)-N^7-(3-fluoro-4-methyl-phenyl)-5-methyl-thiazolo[5,4-d]pyrimidine-2,7-diamine]	6.76	6.97
CSc1ccc(Nc2nc(C)nc3sc(Nc4c(Cl)cccc4Cl)nc23)cc1 [Example 94, N^2-(2,6-Dichloro-phenyl)-5-methyl-N^7-(4-methylsulfanyl-phenyl)-thiazolo[5,4-d]pyrimidine-2,7-diamine]	8.10	8.52
Cc1nc(Nc2ccc(S(=O)(=O)C(C)C)cc2)c2nc(Nc3c(Cl)cccc3Cl)sc2n1 [Example 93, N^2-(2,6-Dichloro-phenyl)-5-methyl-N^7-[4-(propane-2-sulfonyl)-phenyl]-thiazolo[5,4-d]pyrimidine-2,7-diamine]	8.10	8.00
FC(F)(F)c1ccc(Nc2nc(N3CCCC3)nc3sc(Nc4c(Cl)cccc4Cl)nc23)cc1 [Example 58, N^2-(2,6-Dichloro-phenyl)-5-pyrrolidin-1-yl-N^7-(4-trifluoromethyl-phenyl)-thiazolo[5,4-d]pyrimidine-2,7-diamine]	7.82	7.32
Cc1nc(NC2CCC(C(C)(C)C)CC2)c2nc(Nc3c(Cl)cccc3Cl)sc2n1 (mixture of isomers) [Example 8, N^7-(4-tert-Butyl-cyclohexyl)-N^2-(2,6-dichloro-phenyl)-5-methyl-thiazolo[5,4-d]pyrimidine-2,7-diamine]	5.96	7.15
Cc1nc(Nc2ccc(C(C)(C)O)cc2)c2nc(Nc3c(Cl)cccc3Cl)sc2n1 [Example 74, 2-{4-[2-(2,6-Dichloro-phenylamino)-5-methyl-thiazolo[5,4-d]pyrimidin-7-ylamino]-phenyl}-propan-2-ol]	9.00	10.30
FC(F)(F)c1ccc(Nc2ncnc3sc(Nc4ccccc4)nc23)cc1 [Example 20, N^2-Phenyl-N^7-(4-trifluoromethyl-phenyl)-thiazolo[5,4-d]pyrimidine-2,7-diamine]	< 5.18	5.57
